Common to all, as to test: NCI anticancer screen, dose series, 48 h
The test system of experiment [1] is MOLT-4 leukemia.
The test system of experiment [2] is PC-3 prostate.
Experiment [3] deals with SNB-19 CNS.
Experiment [4] concerns NCI-H522 lung.
Experiment [5] relates to SW-620 colon.
Experiment [6] deals with NCI/ADR-RES ovarian.
Experiment [7] has as its system ACHN renal.
Experiment [8] concerns T-47D breast.
For experiment [9], the system named is RXF 393 renal.
In experiment [10] the test system is NCI-H226 lung.
For experiment [11], the system named is A498 renal.
For experiment [12], the system named is HS 578T breast.
In experiment [13] the test system is UO-31 renal.
Experiment [14] has as its system MALME-3M melanoma.
Experiment [15] deals with UACC-62 melanoma.
In experiment [16] the test system is COLO 205 colon.
Experiment [17] relates to HCT-116 colon.
For experiment [18], the system named is U251 CNS.

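Five concentrations, 48 hours, 96-well plates. Definition used: TGI = concentration required for complete inhibition of growth.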

Turning to `C=CCN1C(=O)/C(=C/c2ccccc2)NC1=S`, the TGI in experiment [1], in experiment [2], in experiment [3], in experiment [4], in experiment [5] and in [6] was more than 100 µM throughout. Besides, the TGI in experiment [7], in [8], in experiment [9], in [10], in experiment [11] and in [12] was more than 100 µM in each case. Moreover, the TGI in [13], in experiment [14], in experiment [15], in [16], in [17] and in experiment [18] was more than 100 µM throughout.
In the case of `CCOC(=O)CC(NC(=O)c1nc[nH]c1[N+](=O)[O-])C(=O)OCC` (stereo not given), the TGI in experiment [1] was more than 100 µM; in [3], more than 100 µM; in experiment [4], more than 100 µM; in [5] it was more than 100 µM; in [7] it was more than 100 µM; in [10], 72.5 µM. Further, the TGI in experiment [11], in experiment [13], in experiment [14], in [15], in experiment [16] and in experiment [17] was more than 100 µM in each case. Further, the TGI in [18] was 36.9 µM.
On to `CCCCCCCCCCCCCCCCCc1cccc(OCOCCOC)c1CO`, for which the TGI in experiment [1], in experiment [2], in experiment [3], in [4], in experiment [5] and in experiment [6] was more than 100 µM in each case. For the same molecule, the TGI in experiment [7], in experiment [9], in experiment [10], in experiment [11], in experiment [12] and in experiment [13] was more than 100 µM throughout. In addition, the TGI in experiment [14], in [15], in experiment [16], in experiment [17] and in experiment [18] was more than 100 µM in each case.
As to `COc1cc(C2c3cc4c(cc3[C@@H](Nc3ccccc3)C3CO[C@@H](OC)[C@H]23)OCO4)cc(OC)c1O` (stereo not given in full), the TGI was 6.34 µM in [1]; more than 25 µM in experiment [2]; more than 25 µM in [3]; more than 25 µM in [4]; more than 25 µM in [5]; more than 25 µM in [6]. For the same molecule, the TGI in experiment [7] was 10.6 µM; in [8], more than 25 µM; in experiment [12], 17.3 µM; in experiment [13] it was 8.03 µM; in [16], more than 25 µM; in experiment [17], more than 25 µM. Moreover, in [18], the TGI was more than 25 µM.
As to `Cc1cc(C)cc(Nc2nnc3n2S(=O)(=O)c2cc(C#N)c(Cl)cc2S3)c1`, the TGI in experiment [1] was 52 µM; in experiment [3] it was 21.6 µM; in [4], 4.59 µM; in [5] it was 4.86 µM; in experiment [6] it was 6.51 µM; in [7], 10.7 µM. Also, the TGI in [8] was 31.6 µM; in experiment [9], 3.26 µM; in [10], 26.1 µM; in [11], 31.4 µM; in experiment [12], 15.8 µM; in experiment [13], 17 µM. The TGI in experiment [14] stood at 2.92 µM; in experiment [15], 15.4 µM; in [16], 34.6 µM; in [17] it was 6.37 µM; in experiment [18] it was 4.29 µM.
As to `O=c1c2ccccc2nnn1-c1n[nH]c2ccccc12`, the TGI in experiment [2], in [3], in experiment [4], in experiment [5], in experiment [6] and in experiment [7] was more than 100 µM in each case. The TGI in experiment [8], in experiment [9], in experiment [11], in [12], in experiment [13] and in experiment [14] was more than 100 µM throughout. In addition, the TGI in experiment [15], in experiment [16], in experiment [17] and in experiment [18] was more than 100 µM in each case.
For the molecule `N#[O+].O=S(=O)([O-])[O-].[NH2-].[NH2-].[NH2-].[NH2-].[NH2-].[Ru+5]`, the TGI in [1], in experiment [4], in [5], in experiment [7], in [9] and in experiment [10] was more than 100 µM in each case. For the same molecule, the TGI is more than 100 µM in [11]; 27.7 µM in experiment [14]; more than 100 µM in [15]; more than 100 µM in experiment [16]; more than 100 µM in experiment [17]; more than 100 µM in [18].
Consider `CCOC(=O)c1c(SC(=O)/C=C/c2ccccc2)n(-c2ccccc2)c(=S)n(-c2ccccc2)c1=O`, for which the TGI in [1], in experiment [2], in [3], in experiment [4], in experiment [5] and in experiment [6] was more than 100 µM each time. In addition, the TGI in [7], in experiment [8], in [9], in experiment [10], in experiment [11] and in experiment [12] was more than 100 µM each time. Moreover, the TGI in experiment [14], in experiment [15], in experiment [16], in experiment [17] and in [18] was more than 100 µM each time.
Consider `COc1ccc(OC)c2c1C(=O)C(Cl)=C(N1CCN(CCOCCO)CC1)C2=O`, for which the TGI in [1] stood at 32.8 µM; in experiment [2] it was 16 µM; in [3], 29.5 µM; in experiment [4], 20.9 µM; in experiment [5] it was 28.7 µM; in experiment [6] it was 59 µM. Moreover, the TGI in experiment [7] was determined as 30.3 µM; in [8], 13.1 µM; in [9] it was 33.4 µM; in experiment [10], 39.5 µM; in experiment [11], 30.5 µM; in [12], 38.2 µM. The TGI came out at 29.9 µM in [13]; 34.9 µM in experiment [14]; 15.5 µM in experiment [15]; 17 µM in experiment [17]; 41.3 µM in [18].

The values are drawn from PubChem BioAssay (NCI).
